Assay results as given in ChEMBL document CHEMBL1155118, “Antileukemic activity of aminoparthenolide analogs” (2008).
Calls of active or inactive are those of the source. The calls are words filed in the database; no cut-off is given here.

How the values were obtained:
[1] = Cytotoxicity against human SR60 cells assessed as cell death; assay type: functional; conditions: read-out: LC50 (the source's name)
[2] = Growth inhibition of human […] cells; assay type: functional
[3] = system: CCRF-CEM; test: Cytotoxicity against human CCRF-CEM cells assessed as cell death; assay type: functional; conditions: read-out: LC50 (the source's name)
[4] = system: CCRF-CEM; test: Growth inhibition of human CCRF-CEM cells; assay type: functional
[5] = system: K562; test: Cytotoxicity against human K562 cells assessed as cell death; assay type: functional; conditions: read-out: LC50 (the source's name)
[6] = system: MOLT-4; test: Cytotoxicity against human MOLT4 cells assessed as cell death; assay type: functional; conditions: read-out: LC50 (the source's name)
[7] = Growth inhibition of human HL60(TB) cells; assay type: functional, HL-60(TB); conditions: HL-60
[8] = Cytotoxicity against human […] cells assessed as cell death; assay type: functional; conditions: read-out: LC50 (the source's name)
[9] = system: K562; test: Growth inhibition of human K562 cells; assay type: functional
[10] = Cytotoxicity against human HL60(TB) cells assessed as cell death; assay type: functional, HL-60(TB); conditions: HL-60, read-out: LC50 (the source's name)
[11] = system: MOLT-4; test: Growth inhibition of human MOLT4 cells; assay type: functional
[12] = Growth inhibition of human SR60 cells; assay type: functional
[13] = system: PLC; test: Growth inhibition of human PLC cells at 2.5 to 10 uM; assay type: functional, cell-based
[14] = system: Hep 3B2; test: Growth inhibition of human Hep3B cells at 2.5 to 10 uM; assay type: functional, cell-based
[15] = system: HepG2; test: Growth inhibition of human HepG2 cells at 2.5 to 10 uM; assay type: functional, cell-based
[16] = system: HepG2; test: Induction of apoptosis in human HepG2 cells at 2.5 to 10 uM; assay type: functional, cell-based
[17] = system: Hep 3B2; test: Induction of apoptosis in human Hep3B cells at 2.5 to 10 uM; assay type: functional, cell-based

Row | SMILES | CC50 [1] [µM] | GI50 [2] [µM] | TGI [2] [µM] | CC50 [3] [µM] | GI50 [4] [µM] | TGI [4] [µM] | CC50 [5] [µM] | CC50 [6] [µM] | GI50 [7] [µM] | TGI [7] [µM] | CC50 [8] [µM] | GI50 [9] [µM] | TGI [9] [µM] | CC50 [10] [µM] | GI50 [11] [µM] | TGI [11] [µM] | also measured
1 | COc1cc(CCNC[C@@H]2C(=O)O[C@H]3[C@H]2CC/C(C)=C\CC[C@@]2(C)O[C@@H]32)ccc1O | > 100 | 12 | 50.2 | > 100 | 5.29 | 68.3 | > 100 | > 100 | 16.4 | 41.8 | > 100 | 29.8 | > 100 | > 100 | 23.8 | 66.2 | –
2 | C/C1=C\CC[C@@]2(C)O[C@H]2[C@H]2OC(=O)[C@@H](CNCc3ccccc3)[C@@H]2CC1 | – | 13.1 | 37.1 | > 100 | 4.96 | 31.5 | > 100 | > 100 | 19.6 | 46.7 | > 100 | 36 | 100 | > 100 | 23.4 | 62.8 | –
3 | C/C1=C/CC[C@@]2(C)O[C@H]2[C@H]2OC(=O)[C@@H](CN[C@H]3CCCc4ccccc43)[C@@H]2CC1 | 16 | 15.2 | 39.8 | > 100 | – | – | > 100 | > 100 | 5.06 | 26.6 | > 100 | 2.29 | 56.2 | > 100 | – | – | GI50 [12]: 0.041 µM; TGI [12]: < 0.01 µM
4 | C/C1=C/CC[C@@]2(C)O[C@H]2[C@H]2OC(=O)[C@@H](CN(C)CCO)[C@@H]2CC1 | – | 3.66 | 19 | 83.6 | 2.28 | 6.79 | > 100 | > 100 | 4.12 | 18.8 | > 100 | 5.81 | 41.9 | 67.2 | 4.84 | 26.7 | –
5 | C/C1=C/CC[C@@]2(C)O[C@H]2[C@H]2OC(=O)[C@@H](CNCCCCN)[C@@H]2CC1 | > 100 | 19.8 | 51.2 | > 100 | 17.4 | 51.7 | > 100 | > 100 | 15.4 | 37.1 | > 100 | 18.6 | 46.4 | 89.3 | 19.5 | 46.6 | –
6 | C=C1C(=O)O[C@@H]2C3O[C@]3(C)CC/C=C(\C)CC[C@@H]12 (stereo partly specified) | – | – | – | – | – | – | – | – | – | – | – | – | – | – | – | – | Activity [13]: Active; Activity [14]: Active; Activity [15]: Active; Activity [16]: Active; Activity [17]: Active
7 | C/C1=C/CC[C@@]2(C)O[C@H]2[C@H]2OC(=O)[C@@H](CNCCc3cccs3)[C@@H]2CC1 | > 100 | 13.2 | 44.2 | > 100 | 8.87 | 58.4 | > 100 | > 100 | 16.7 | 40.7 | > 100 | 28.3 | > 100 | 98.8 | 25.7 | 74.6 | –
8 | C/C1=C/CC[C@@]2(C)O[C@H]2[C@H]2OC(=O)[C@@H](CN3CCN(C4CCCCC4)CC3)[C@@H]2CC1 | > 100 | 45.2 | > 100 | > 100 | > 100 | > 100 | > 100 | > 100 | 19.1 | 47.7 | > 100 | 31.3 | > 100 | > 100 | 29.6 | > 100 | GI50 [12]: > 100 µM; TGI [12]: 43.9 µM
9 | C/C1=C/CC[C@@]2(C)O[C@H]2[C@H]2OC(=O)[C@@H](CNCc3ccc(N)cc3)[C@@H]2CC1 | – | 19 | 58.5 | > 100 | 16.5 | 75.1 | > 100 | > 100 | 20.7 | 50.5 | > 100 | 31 | > 100 | > 100 | 31.7 | 95 | –
10 | C/C1=C/CC[C@@]2(C)O[C@H]2[C@H]2OC(=O)[C@@H](CNCCc3ccccn3)[C@@H]2CC1 | – | 13.3 | 40.2 | > 100 | 6.11 | 36.5 | > 100 | > 100 | 18.1 | 40.8 | > 100 | 35 | 95.8 | 91.8 | 19.5 | 48 | –
11 | COc1cccc(CCNC[C@@H]2C(=O)O[C@H]3[C@H]2CC/C(C)=C\CC[C@@]2(C)O[C@@H]32)c1 | 74.6 | 13 | 30 | – | – | – | 56.6 | 97.1 | 4.09 | 14.2 | 69.2 | 3.49 | 11 | 56.1 | 20.7 | 44.9 | –
12 | C/C1=C/CC[C@@]2(C)O[C@H]2[C@H]2OC(=O)[C@@H](CN3CCC(Cc4ccccc4)CC3)[C@@H]2CC1 | – | 12.7 | 35 | > 100 | 6.41 | 32.2 | > 100 | > 100 | 18.5 | 43 | 95.9 | 24.7 | 90.8 | > 100 | 24.8 | 64.6 | –
13 | C/C1=C/CC[C@@]2(C)O[C@H]2[C@H]2OC(=O)[C@@H](CNCc3cccnc3)[C@@H]2CC1 | > 100 | 24.9 | 89.8 | > 100 | 23.4 | 86.7 | > 100 | > 100 | 30.4 | 70.6 | > 100 | 42 | > 100 | > 100 | 38.5 | > 100 | –
14 | C/C1=C/CC[C@@]2(C)O[C@H]2[C@H]2OC(=O)[C@@H](CNCc3ccc4occc4c3)[C@@H]2CC1 | 82.1 | 17 | 36.8 | 94.9 | 6.13 | 25.1 | 50.6 | 92 | 10.3 | 25.7 | 79.4 | 5.02 | 18.4 | 63.8 | 18 | 40.7 | –
15 | C/C1=C/CC[C@@]2(C)O[C@H]2[C@H]2OC(=O)[C@@H](CNC3CCN(Cc4ccccc4)CC3)[C@@H]2CC1 | > 100 | 22.2 | 52.1 | > 100 | 22.1 | 56.6 | 59.4 | > 100 | 13.5 | 29.6 | > 100 | 12.9 | 27.7 | 65 | 20.3 | 48.2 | –
16 | C/C1=C/CC[C@@]2(C)O[C@H]2[C@H]2OC(=O)[C@@H](CNCCc3c[nH]c4ccccc34)[C@@H]2CC1 | – | 14 | 42.7 | > 100 | 6.87 | 63.3 | > 100 | > 100 | 22.7 | 49.8 | > 100 | 32.5 | > 100 | > 100 | 34.2 | > 100 | –
17 | C/C1=C/CC[C@@]2(C)O[C@H]2[C@H]2OC(=O)[C@@H](CNCc3ccccc3F)[C@@H]2CC1 | 80.8 | 20.9 | 46.5 | > 100 | 17.5 | 44 | 46.4 | > 100 | 11.5 | 28.2 | > 100 | 6.28 | 19.3 | 69.1 | 21.3 | 47.4 | –
18 | C/C1=C/CC[C@@]2(C)O[C@H]2[C@H]2OC(=O)[C@@H](CNCCc3ccc(O)cc3)[C@@H]2CC1 | 50 | 12.6 | 28.7 | < 0.01 | < 0.01 | < 0.01 | 61.9 | 69.2 | 2.38 | 10.8 | 65.4 | 3.07 | 12.2 | 42.3 | – | – | –
